Assay results reported in the Kinase Knowledgebase extract (Sharma et al. 2016).
“And” between values parts separate entries of the source, which are not always exact repeats. Identical values can stand only once.

Molecular target: ROCK2 (human) (UniProt O75116)
Assay: Inhibition of ROCK2 Kinase Activity

Chain of ROCK2 (human) (O75116 whole entry, looked up): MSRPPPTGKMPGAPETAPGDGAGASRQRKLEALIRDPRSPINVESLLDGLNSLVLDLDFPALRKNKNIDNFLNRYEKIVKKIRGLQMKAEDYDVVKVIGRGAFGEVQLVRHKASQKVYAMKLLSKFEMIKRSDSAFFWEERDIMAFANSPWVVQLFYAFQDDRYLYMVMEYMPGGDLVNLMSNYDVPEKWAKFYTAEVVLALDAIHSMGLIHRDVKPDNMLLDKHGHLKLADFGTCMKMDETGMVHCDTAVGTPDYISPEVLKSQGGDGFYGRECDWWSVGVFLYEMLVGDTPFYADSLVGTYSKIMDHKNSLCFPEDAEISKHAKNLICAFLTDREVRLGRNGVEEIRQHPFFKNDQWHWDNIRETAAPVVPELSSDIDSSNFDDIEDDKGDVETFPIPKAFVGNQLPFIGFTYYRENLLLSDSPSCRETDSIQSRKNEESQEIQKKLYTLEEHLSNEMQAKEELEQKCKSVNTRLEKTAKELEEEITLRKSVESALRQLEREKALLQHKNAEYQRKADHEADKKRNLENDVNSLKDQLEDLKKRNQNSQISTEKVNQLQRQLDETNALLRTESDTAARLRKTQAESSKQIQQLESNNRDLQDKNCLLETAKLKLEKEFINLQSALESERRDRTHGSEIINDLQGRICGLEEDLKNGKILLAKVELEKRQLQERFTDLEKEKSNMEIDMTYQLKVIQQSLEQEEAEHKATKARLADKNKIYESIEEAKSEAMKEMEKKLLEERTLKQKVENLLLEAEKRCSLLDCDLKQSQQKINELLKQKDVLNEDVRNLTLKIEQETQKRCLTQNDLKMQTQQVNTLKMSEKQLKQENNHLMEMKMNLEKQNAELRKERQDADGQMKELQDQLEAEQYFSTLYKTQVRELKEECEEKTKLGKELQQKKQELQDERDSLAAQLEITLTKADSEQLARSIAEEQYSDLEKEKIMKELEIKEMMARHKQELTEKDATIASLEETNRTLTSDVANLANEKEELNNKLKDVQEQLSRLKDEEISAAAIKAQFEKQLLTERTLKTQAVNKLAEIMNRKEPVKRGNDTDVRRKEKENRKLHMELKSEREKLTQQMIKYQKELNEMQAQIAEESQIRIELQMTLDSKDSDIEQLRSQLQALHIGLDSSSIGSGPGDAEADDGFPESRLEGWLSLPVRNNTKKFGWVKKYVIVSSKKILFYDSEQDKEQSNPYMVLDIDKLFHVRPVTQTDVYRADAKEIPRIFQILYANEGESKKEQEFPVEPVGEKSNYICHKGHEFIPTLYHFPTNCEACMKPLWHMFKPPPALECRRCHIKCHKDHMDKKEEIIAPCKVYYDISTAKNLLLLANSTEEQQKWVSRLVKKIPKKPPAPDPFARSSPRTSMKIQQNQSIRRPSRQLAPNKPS

| Structure (SMILES) | IC50 |
| --- | --- |
| CC(N)(c1ccc(F)cc1)C1CCC(Oc2cc3cc[nH]c(=O)c3cc2Cl)CC1 (centres undefined) | 10 to 100 nM |
| NC(C1CCC(Oc2cc3cc[nH]c(=O)c3cc2Cl)CC1)C1CC1 (centres undefined) | 100 to 1000 nM |
| CCC(N)(CC)C1CCC(Oc2cc3cc[nH]c(=O)c3cc2Cl)CC1 (centres undefined) | 100 to 1000 nM and 10 to 100 nM |
| COc1ccc(C(N)[C@H]2CC[C@@H](Oc3cc4cc[nH]c(=O)c4cc3Cl)CC2)cc1 (some centres undefined) | ≤ 10 nM |
| CC[C@@H](N)[C@]1(c2ccccc2)CC[C@H](Oc2cc3cc[nH]c(=O)c3cc2Cl)CC1 | ≤ 10 nM |
| CC(N)(C1CCC(Oc2cc3cc[nH]c(=O)c3cc2Cl)CC1)C1CC1 (centres undefined) | 100 to 1000 nM |
| CC[C@H](N)[C@]1(c2ccccc2)CC[C@H](Oc2cc3cc[nH]c(=O)c3cc2Cl)CC1 | ≤ 10 nM |
| CCC(N)[C@]1(c2ccc(C)c(OC)c2)CC[C@H](Oc2cc3cc[nH]c(=O)c3cc2Cl)CC1 (some centres undefined) | ≤ 10 nM |
| Cc1ccc(C(N)C2CCC(Oc3cc4cc[nH]c(=O)c4cc3Cl)CC2)cc1 (centres undefined) | ≤ 10 nM and 10 to 100 nM |
| CCC(N)[C@]1(c2cccc(Br)c2)CC[C@H](Oc2cc3cc[nH]c(=O)c3cc2Cl)CC1 (some centres undefined) | ≤ 10 nM |
| N[C@H](c1ccc(F)cc1)C1CCC(Oc2cc3cc[nH]c(=O)c3cc2Cl)CC1 (some centres undefined) | 100 to 1000 nM |
| CC[C@@H](N)[C@]1(c2ccccc2)CC[C@@H](Oc2cc3cc[nH]c(=O)c3cc2Cl)CC1 | 10 to 100 nM |
| CCCC(C)(N)C1CCC(Oc2cc3cc[nH]c(=O)c3cc2Cl)CC1 (centres undefined) | 10 to 100 nM |
| COc1ccc(C(N)[C@H]2CC[C@H](Oc3cc4cc[nH]c(=O)c4cc3Cl)CC2)cc1 (some centres undefined) | 10 to 100 nM |
| CCC(N)C1CCC(Oc2cc3cc[nH]c(=O)c3cc2Cl)CC1 (centres undefined) | 10 to 100 nM |
| CC[C@@H](N)[C@]1(c2ccc(F)cc2)CC[C@H](Oc2cc3cc[nH]c(=O)c3cc2Cl)CC1 | ≤ 10 nM |

Now from value to molecule:

| IC50 | Structure (SMILES) |
| --- | --- |
| 100 to 1000 nM | CC(N)(C1CCCC1)C1CCC(Oc2cc3cc[nH]c(=O)c3cc2Cl)CC1 (centres undefined) |
| 100 to 1000 nM | CCC(N)C1(c2ccc(F)cc2)CC(Oc2cc3cc[nH]c(=O)c3cc2Cl)C1 (centres undefined) |
| 100 to 1000 nM | N[C@@H](c1ccccc1)[C@]1(c2ccccc2)CC[C@@H](Oc2cc3cc[nH]c(=O)c3cc2Cl)CC1 |
| 10 to 100 nM | N[C@H](c1ccccc1)[C@]1(c2ccccc2)CC[C@@H](Oc2cc3cc[nH]c(=O)c3cc2Cl)CC1 |
| ≤ 10 nM | N[C@@H](c1ccc(F)cc1)C1CCC(Oc2cc3cc[nH]c(=O)c3cc2Cl)CC1 (some centres undefined) |
| 10 to 100 nM | CC(N)(c1ccccc1)C1CCC(Oc2cc3cc[nH]c(=O)c3cc2Cl)CC1 (centres undefined) |
| 10 to 100 nM | COc1ccc(C(C)(N)C2CCC(Oc3cc4cc[nH]c(=O)c4cc3Cl)CC2)cc1 (centres undefined) |
| ≤ 10 nM | NC(c1ccc(F)cc1)C1CCC(Oc2cc3cc[nH]c(=O)c3cc2Cl)CC1 (centres undefined) |
